Source: US6803383B2, “Inhibition of angiogenesis and tumor growth” (The Scripps Research Institute, priority 2000, dated 2004)

Columns and labels:
[1] = target: T1, MMP2 binding to integrin αvβ3 (Homo sapiens, UniProt P05106+P06756); assay: Solid phase integrin binding assay: biotinylated MMP2 binding to immobilized integrin; settings: bMMP2 3-5 nM, FIG. 2A
T1 construct: purchased Merck KGaA or Chemicon International (integrin); Chemicon (proMMP2) or Calbiochem (active MMP2)
Protocol: (§1) Purified integrins were adsorbed overnight onto microtiter wells (1-5 μg/ml, […]) prior to blocking with Caseinblocker (Pierce, Rockford, Ill.). Purified biotinylated MMP2 (bMMP2, 3-5 nM) in binding buffer (50 mM Tris, pH 8, 150 mM NaCl, 1 mM MgCl2, 0.5 mM MnCl2) was added to the wells in the presence or absence of Compound 1, Compound 12, cyclic RGD or RAD peptides, or buffer vehicle alone. Control wells received no integrin. Biotinylated vitronectin (bVN, 1 μg/ml) was used as a reference. Bound protein was detected with HRP-anti-biotin mAb and quantitated at 450 nm with 3,3′,5,5′-tetramethylbenzidine solution (TMB; a substrate for the peroxidase) (BioRad, Hercules, Calif.).

[2] = tested on: αvβ3-negative CS-1 melanoma tumors; assay: Tumor growth assay on chick CAM; assay type: in vivo
Protocol: Primary tumors were grown on CAMs of 9-day embryos by implantation 5×10^6 CS-1 cells and incubation for 7 days. At this point, 50 mg sections of these tumors were subcultured onto fresh 9-day CAMs and allowed to implant for 24 hours before a single intravenous (IV) injection with 100 μl of 100 μM of test compounds in Hank's Balanced Saline Solution (HBSS). Buffer alone was used as control. Tumors were incubated for a total of 10 days, harvested and trimmed free of excess stromal tissue before determining wet weight and processing for histology.
Snap-frozen CS-1 tumor sections were fixed with 4% paraformaldehyde and permeablized with 0.1% Triton X-100. Sections were blocked with 5% bovine serum albumin (BSA) in phosphate buffered saline (PBS) prior to staining with an anti-vWF pAb and visualization with an Alexa 568-conjugated anti-rabbit secondary antibody. Samples were analyzed on a MRC1024 confocal microscope (BioRad, Hercules, Calif.). Blood vessel density was quantitated with a 20×objective on four fields per section and four tumors per condition.

[3] = tested on: β3CS-1 cells; assay: Biotinylated MMP2 cell-binding assay, β3-positive cells; assay type: cell-based, hamster
Protocol: CS-1 cells or β3CS-1 cells were incubated in adhesion buffer fibroblast basal medium (FBM) supplemented with 0.5% bovine serum albumin (BSA), 0.4 mM MnCl2 and 10 μg/ml aprotinin) containing either 4 nM purified active MMP2 alone, or in combination with 10 μM Compound 1 or Compound 12 for 45 minutes at 37° C. prior to washing and addition to the [^3H]-collagen IV-coated wells. Wells had been coated overnight with 50 μl of 0.414 mCi/ml [^3H]-collagen IV (ICN Biochemicals, Costa Mesa, Calif.) and washed extensively until the radioactivity in the recovered wash solution reached background. Alternatively, cells were treated as above in the absence of MMP2, or the MMP2 solutions were added directly to the wells without cells, as controls. Collagen IV degradation was quantitated by measuring the radioactivity released into the 50 μl of culture medium as determined in a liquid scintillation counter. […]
Immunoblotting. Equal quantities of protein were separated by SDS-PAGE under reducing conditions and electroblotted to an Immobilon-P membrane (Millipore, Bedford, Md.). The membrane was blocked and immobilized proteins were detected by incubation with an antigen-specific primary antibody, followed by an HRP-conjugated secondary antibody as required. […]

[4] = tested on: MMP2; assay: Zymography of chick CAM lysates; assay type: in vivo; settings: FIG. 4C
Protocol: (§2) Angiogenesis was assessed essentially as described previously (Cell, 85, 683-93 (1996); Cell, 92, 391-400 (1998)). After stimulation with 3 μg/ml of basic fibroblast growth factor (bFGF), 10 day chick embryo CAMs were treated with 20 μl of 3 μM Compound 1 or Compound 12. Three days after induction, the CAMs were quantitated in a blind evaluation. CAMs from each group were pooled, minced, and extracted with 50 mM Tris, […], 0.1% Triton X-100 containing COMPLETE-brand protease inhibitor cocktail without EDTA (Boehringer, Mannheim, Germany) prior to analysis by zymography.
Zymography. Chick CAM lysates were prepared as described above and equal quantities of protein were separated in the absence of reducing agents or boiling on polyacrylamide gels embedded with 0.2% gelatin. The gels were washed with 2% Triton X-100, followed by extensive washing with water prior to overnight incubation at 37° C. in collagenase buffer (50 mM Tris 7.4, 200 mM NaCl 10 mM CaCl2). Gelatinolytic activity was visualized by staining the gels with 0.5% Coomassie blue.

[5] = target: T2, MMP2 and tissue inhibitor of metalloproteinase 2 (TIMP2) (Homo sapiens, UniProt P08253); assay: Binding between MMP2 and TIMP2
T2 sequence (P08253 110-660): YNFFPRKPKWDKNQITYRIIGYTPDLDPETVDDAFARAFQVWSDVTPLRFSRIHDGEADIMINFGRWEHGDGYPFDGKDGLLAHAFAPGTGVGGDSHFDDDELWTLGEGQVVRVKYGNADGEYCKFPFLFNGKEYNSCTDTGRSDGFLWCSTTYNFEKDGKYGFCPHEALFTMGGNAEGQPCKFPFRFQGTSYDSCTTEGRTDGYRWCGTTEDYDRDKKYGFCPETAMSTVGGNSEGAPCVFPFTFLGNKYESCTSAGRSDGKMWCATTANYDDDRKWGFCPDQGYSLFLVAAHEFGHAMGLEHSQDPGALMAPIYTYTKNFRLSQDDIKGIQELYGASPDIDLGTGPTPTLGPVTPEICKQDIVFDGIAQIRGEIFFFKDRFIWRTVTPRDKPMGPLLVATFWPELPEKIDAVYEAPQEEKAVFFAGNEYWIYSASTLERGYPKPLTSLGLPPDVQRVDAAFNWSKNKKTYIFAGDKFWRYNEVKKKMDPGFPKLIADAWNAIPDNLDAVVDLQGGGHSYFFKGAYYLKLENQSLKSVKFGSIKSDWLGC

[6] = tested on: bFGF-induced angiogenesis on chick CAM; assay: Chick chorioallantoic membrane (CAM) angiogenesis assay; assay type: in vivo; settings: 10 day chick CAM, 3 μg/ml bFGF, 20 μl of 3 μM compound, 3 days; FIGS. 4A, 4B
Protocol: as §2

[7] = tested on: β3CS-1 cells; assay: Cell-mediated [3H]-collagen IV degradation via MMP2; assay type: cell-based, hamster; settings: 4 nM active MMP2, 10 μM compound, FIG. 3A
Protocol: (§3) Wells had been coated overnight with 50 μl of 0.414 mCi/ml [^3H]-collagen IV (ICN Biochemicals, Costa Mesa, Calif.) and washed extensively until the radioactivity in the recovered wash solution reached background. Alternatively, cells were treated as above in the absence of MMP2, or the MMP2 solutions were added directly to the wells without cells, as controls. Collagen IV degradation was quantitated by measuring the radioactivity released into the 50 μl of culture medium as determined in a liquid scintillation counter. For the assessment of biotinylated MMP2 binding to CS-1 cells, cells were suspended in adhesion buffer and incubated with 12 nM bMMP2 for 45 minutes at 37° C. in the presence or absence of 10 μM Compound 1 or Compound 12. Cells were subsequently washed before lysis and processing for SDS-PAGE and immunoblotting with an anti-biotin mAb.

[8] = target: T3, MMP2 (Homo sapiens, UniProt P08253); assay: [3H]-collagen IV degradation by purified active MMP2 without cells; assay type: biochemical; settings: 4 nM active MMP2, 10 μM compound, no cells
T3 construct: purchased Calbiochem (La Jolla, Calif.)
T3 sequence (P08253 110-660): T2 sequence (P08253 110-660)
Protocol: CS-1 cells or β3CS-1 cells were incubated in adhesion buffer fibroblast basal medium (FBM) supplemented with 0.5% bovine serum albumin (BSA), 0.4 mM MnCl2 and 10 μg/ml aprotinin) containing either 4 nM purified active MMP2 alone, or in combination with 10 μM Compound 1 or Compound 12 for 45 minutes at 37° C. prior to washing and addition to the [^3H]-collagen IV-coated wells. Wells had been coated overnight with 50 μl of 0.414 mCi/ml [^3H]-collagen IV (ICN Biochemicals, Costa Mesa, Calif.) and washed extensively until the radioactivity in the recovered wash solution reached background. Alternatively, cells were treated as above in the absence of MMP2, or the MMP2 solutions were added directly to the wells without cells, as controls. Collagen IV degradation was quantitated by measuring the radioactivity released into the 50 μl of culture medium as determined in a liquid scintillation counter. For the assessment of biotinylated MMP2 binding to CS-1 cells, cells were suspended in adhesion buffer and incubated with 12 nM bMMP2 for 45 minutes at 37° C. in the presence or absence of 10 μM Compound 1 or Compound 12. Cells were subsequently washed before lysis and processing for SDS-PAGE and immunoblotting with an anti-biotin mAb.

[9] = target: T4, integrin αvβ3 (Homo sapiens, UniProt P05106+P06756); assay: Direct binding of [14C]-Compound 1 to immobilized integrin, solid phase
T4 construct: purchased Merck KGaA or Chemicon International
T4 sequence (P06756 31-889 limits assumed): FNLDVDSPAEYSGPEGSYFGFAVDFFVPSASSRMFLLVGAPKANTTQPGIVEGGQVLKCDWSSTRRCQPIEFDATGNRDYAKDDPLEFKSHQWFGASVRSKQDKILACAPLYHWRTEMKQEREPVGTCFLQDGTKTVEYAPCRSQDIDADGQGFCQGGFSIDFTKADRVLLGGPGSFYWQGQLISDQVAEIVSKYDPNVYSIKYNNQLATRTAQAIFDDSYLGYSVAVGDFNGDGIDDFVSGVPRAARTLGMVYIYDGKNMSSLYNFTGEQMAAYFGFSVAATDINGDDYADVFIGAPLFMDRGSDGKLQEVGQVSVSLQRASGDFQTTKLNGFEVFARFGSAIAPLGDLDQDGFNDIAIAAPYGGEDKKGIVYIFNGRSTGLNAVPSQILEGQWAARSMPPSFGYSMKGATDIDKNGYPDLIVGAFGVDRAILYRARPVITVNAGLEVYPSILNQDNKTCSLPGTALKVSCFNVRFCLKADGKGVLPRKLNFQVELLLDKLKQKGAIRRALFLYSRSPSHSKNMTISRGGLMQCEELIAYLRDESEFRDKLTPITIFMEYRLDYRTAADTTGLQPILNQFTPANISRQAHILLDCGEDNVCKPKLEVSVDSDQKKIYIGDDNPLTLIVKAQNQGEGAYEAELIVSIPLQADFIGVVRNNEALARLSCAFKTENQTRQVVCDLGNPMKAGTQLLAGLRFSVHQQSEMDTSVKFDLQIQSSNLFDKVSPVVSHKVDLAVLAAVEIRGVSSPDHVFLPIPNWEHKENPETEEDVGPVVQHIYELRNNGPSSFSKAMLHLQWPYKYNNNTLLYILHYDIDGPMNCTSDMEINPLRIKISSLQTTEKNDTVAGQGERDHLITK
T4 sequence (P06756 891-1048 limits assumed): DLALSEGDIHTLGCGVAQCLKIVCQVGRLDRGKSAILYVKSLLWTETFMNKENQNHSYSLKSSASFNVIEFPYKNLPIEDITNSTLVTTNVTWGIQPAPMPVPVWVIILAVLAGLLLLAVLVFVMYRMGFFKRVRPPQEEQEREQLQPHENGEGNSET
T4 sequence (P05106 27-788): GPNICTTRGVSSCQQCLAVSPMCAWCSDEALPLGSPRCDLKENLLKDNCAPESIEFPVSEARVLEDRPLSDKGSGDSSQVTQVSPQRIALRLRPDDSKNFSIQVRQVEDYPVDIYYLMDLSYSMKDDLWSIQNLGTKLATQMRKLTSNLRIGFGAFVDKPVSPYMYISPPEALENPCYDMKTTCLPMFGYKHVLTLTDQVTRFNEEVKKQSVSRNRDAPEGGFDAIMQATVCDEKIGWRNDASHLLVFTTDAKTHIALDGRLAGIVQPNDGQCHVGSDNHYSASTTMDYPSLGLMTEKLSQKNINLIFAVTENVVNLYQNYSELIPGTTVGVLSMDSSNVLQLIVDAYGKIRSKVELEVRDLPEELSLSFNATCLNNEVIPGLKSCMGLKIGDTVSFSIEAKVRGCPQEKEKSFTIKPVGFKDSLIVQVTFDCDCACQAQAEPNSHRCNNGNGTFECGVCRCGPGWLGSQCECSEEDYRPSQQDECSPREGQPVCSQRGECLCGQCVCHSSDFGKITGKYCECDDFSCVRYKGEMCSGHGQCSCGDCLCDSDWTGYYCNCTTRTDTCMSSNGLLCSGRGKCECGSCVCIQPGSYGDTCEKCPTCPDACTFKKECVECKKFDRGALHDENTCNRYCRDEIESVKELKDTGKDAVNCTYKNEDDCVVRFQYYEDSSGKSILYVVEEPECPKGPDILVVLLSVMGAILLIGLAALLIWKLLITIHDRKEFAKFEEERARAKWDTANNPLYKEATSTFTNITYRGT
Protocol: (§4) Dried wells were separated and immersed in BetaMax liquid scintillation cocktail (ICN Biochemicals, Costa Mesa, Calif.) for quantitation. From this binding curve a subsaturating concentration (3 μM) of [^14C]-Compound 1 was examined in the presence and absence of a 25-fold molar excess ([…]) of unlabeled Compound 1 or Compound 12, or 100 μM cyclic RGD or RAD peptide. Control was bVN, used and detected as described above.

[10] = tested on: CS-1 melanoma cells; assay: In vitro growth of melanoma cells in co-culture with compound; assay type: cell-based, hamster; settings: co-culture with the compound; data not shown
[11] = target: T3, MMP2; assay: Direct binding of Compound 1 to MMP2 coated on the microtiter well; settings: data not shown
[12] = tested on: CS-1 cells; assay: Biotinylated MMP2 cell-binding assay, β3-negative cells; assay type: cell-based, hamster; settings: 12 nM bMMP2, 10 μM compound; FIG. 3B
Protocol: as §3

[13] = target: integrin α5β1 (Homo sapiens, UniProt P05556+P08648); assay: Direct binding of [14C]-Compound 1 to immobilized control integrin, solid phase
Chain of integrin α5β1 (P08648 42-894 limits assumed): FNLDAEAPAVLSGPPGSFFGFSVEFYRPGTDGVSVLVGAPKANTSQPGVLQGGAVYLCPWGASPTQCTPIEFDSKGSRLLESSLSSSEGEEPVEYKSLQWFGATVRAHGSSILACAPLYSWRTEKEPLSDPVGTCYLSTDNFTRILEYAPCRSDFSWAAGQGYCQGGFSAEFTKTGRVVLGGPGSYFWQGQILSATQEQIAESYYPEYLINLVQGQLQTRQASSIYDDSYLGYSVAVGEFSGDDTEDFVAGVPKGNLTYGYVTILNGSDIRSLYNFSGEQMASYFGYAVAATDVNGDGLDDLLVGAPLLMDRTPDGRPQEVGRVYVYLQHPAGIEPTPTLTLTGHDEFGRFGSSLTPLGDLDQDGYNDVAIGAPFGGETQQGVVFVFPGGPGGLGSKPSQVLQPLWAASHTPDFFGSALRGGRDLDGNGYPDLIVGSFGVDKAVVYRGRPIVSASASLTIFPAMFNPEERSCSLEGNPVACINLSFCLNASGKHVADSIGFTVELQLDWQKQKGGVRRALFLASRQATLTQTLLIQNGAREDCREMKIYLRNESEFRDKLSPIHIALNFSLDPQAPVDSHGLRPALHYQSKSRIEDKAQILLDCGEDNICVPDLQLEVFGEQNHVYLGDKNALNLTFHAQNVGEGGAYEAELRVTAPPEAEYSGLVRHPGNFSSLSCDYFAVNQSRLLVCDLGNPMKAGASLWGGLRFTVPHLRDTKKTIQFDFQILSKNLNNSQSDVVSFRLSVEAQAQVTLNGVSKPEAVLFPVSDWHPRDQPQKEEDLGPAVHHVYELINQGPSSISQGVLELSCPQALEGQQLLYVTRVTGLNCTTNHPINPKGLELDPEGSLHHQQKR
Chain of integrin α5β1 (P08648 895-1049 limits assumed): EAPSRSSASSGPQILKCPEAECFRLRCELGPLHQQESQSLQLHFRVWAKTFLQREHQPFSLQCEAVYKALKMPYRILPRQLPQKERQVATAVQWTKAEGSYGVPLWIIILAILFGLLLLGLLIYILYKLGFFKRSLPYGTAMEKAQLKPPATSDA
Chain of integrin α5β1 (P05556 21-798): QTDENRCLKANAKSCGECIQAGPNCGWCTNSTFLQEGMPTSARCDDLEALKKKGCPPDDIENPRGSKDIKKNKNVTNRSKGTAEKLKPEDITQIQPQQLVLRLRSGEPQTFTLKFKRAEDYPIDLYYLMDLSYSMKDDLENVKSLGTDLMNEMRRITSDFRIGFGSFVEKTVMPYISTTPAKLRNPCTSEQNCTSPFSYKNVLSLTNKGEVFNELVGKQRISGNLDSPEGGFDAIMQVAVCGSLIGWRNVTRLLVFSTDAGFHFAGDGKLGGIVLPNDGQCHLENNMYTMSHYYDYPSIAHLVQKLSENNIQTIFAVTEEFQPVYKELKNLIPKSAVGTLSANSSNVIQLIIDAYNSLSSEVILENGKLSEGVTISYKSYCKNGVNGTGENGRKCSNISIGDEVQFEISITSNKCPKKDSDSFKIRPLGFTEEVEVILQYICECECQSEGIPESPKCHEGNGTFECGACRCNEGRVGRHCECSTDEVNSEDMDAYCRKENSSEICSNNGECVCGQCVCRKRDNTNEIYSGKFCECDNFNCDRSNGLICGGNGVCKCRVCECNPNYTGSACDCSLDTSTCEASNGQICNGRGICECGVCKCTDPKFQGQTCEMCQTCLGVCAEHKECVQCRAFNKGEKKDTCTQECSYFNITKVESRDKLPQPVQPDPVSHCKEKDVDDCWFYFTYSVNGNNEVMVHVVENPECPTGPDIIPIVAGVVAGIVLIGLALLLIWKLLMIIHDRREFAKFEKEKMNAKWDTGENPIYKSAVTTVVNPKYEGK
Protocol: as §4

[14] = target: T5, vitronectin binding to integrin αvβ3 (Homo sapiens, UniProt P05106+P06756); assay: Solid phase integrin binding assay: biotinylated vitronectin (bVN) binding to immobilized integrin
T5 construct: purchased Merck KGaA or Chemicon International (integrin)
T5 sequence (P06756 31-889 limits assumed): as the sequence (P06756 31-889 limits assumed) above
T5 sequence (P06756 891-1048 limits assumed): as the sequence (P06756 891-1048 limits assumed) above
T5 sequence (P05106 27-788): as the sequence (P05106 27-788) above
Protocol: as §1, §4

T1 sequence (P06756 31-889 limits assumed): as the sequence (P06756 31-889 limits assumed) above
T1 sequence (P06756 891-1048 limits assumed): as the sequence (P06756 891-1048 limits assumed) above
T1 sequence (P05106 27-788): as the sequence (P05106 27-788) above

## O=C(CNC(=O)c1cccc(C(=O)NCC(=O)NCCCC[C@H](NC(=O)OCc2ccc(C(F)(F)F)cc2)C(=O)O)c1)NCCCC[C@H](NC(=O)OCc1ccc(C(F)(F)F)cc1)C(=O)O [Compound 1, N,N^1-Bis-[(5-(S)-carboxy-5-[((4-trifluoromethyl)benzyloxycarbonyl)amino]-pentyl)carboxamidomethyl]benzene-1,3-dicarboxamide]
[1]
  Effect on MMP2 binding to integrin αvβ3: completely abrogated
[2]; anti-vWF immunofluorescence of tumor sections
  Overall tumor blood vessel density: gross reduction
[2]; single IV injection, 100 μl of 100 μM
  Cell death within the tumor mass: significant cell death
[2]; single IV injection, 100 μl of 100 μM, 10 days, wet weight
  Tumor weight: significantly retarded
[2]; single IV injection, 100 μl of 100 μM, 10 days, FIG. 5A
  Growth of transplanted CS-1 melanoma tumors on chick CAM: significantly retarded
[2]; single IV injection, 100 μl of 100 μM, FIG. 5A
  Tumor surface vasculature: gross reduction
[3]; 12 nM bMMP2, 10 μM compound, FIG. 3B
  Effect on enhanced biotinylated MMP2 binding to β3CS-1 cells: specifically suppressed
[3]; 10 μM compound, corrected by anti-actin mAb staining, FIG. 3B lane 2
  Biotinylated MMP2 binding to β3CS-1 cells, corrected for lane loading: reduced the binding of MMP2 to the β3CS-1 cells to the level observed in the absence αvβ3
[4]
  Levels of active MMP2 (62 kDa) in CAM tissues, treated versus untreated: equivalent levels of active MMP2
  Overall levels of MMP2 in CAM lysates: unaffected
[5]
  Effect on binding between MMP2 and TIMP2: not inhibited
[6]
  Effect on development of new blood vessels in bFGF-stimulated CAM: almost completely abolished
[7]
  Effect on MMP2-enhanced cell-mediated [3H]collagen IV degradation: specifically abolished
[8]
  Effect on [3H]collagen IV degradation by purified active MMP2 in the absence of cells: still able to degrade
[9]; 3 μM [14C]-Compound 1, 25-fold molar excess of unlabeled compound, FIG. 2C
  Inhibition of [14C]-Compound 1 binding to integrin αvβ3 by unlabeled compound: inhibited
[9]; [14C]-labeled Compound 1, titration, FIG. 2B
  Direct binding to integrin αvβ3: bound directly
[10]
  Growth of CS-1 melanoma cells in vitro: not affected
[11]
  Direct binding to MMP2 coated on the well: no binding
[12]
  Effect on biotinylated MMP2 binding to β3-negative CS-1 cells: not diminished
[13]; [14C]-labeled Compound 1, FIG. 2B
  Direct binding to control integrin α5β1: minimal interaction
[13]; higher concentrations of compound, data not shown
  Direct binding to integrin α5β1 at higher concentrations: negligible binding

## COC(=O)[C@H](CCCCNC(=O)CNC(=O)c1ccccc1)NC(=O)OCc1ccc(C(F)(F)F)cc1 [Compound 6, (S)-Methyl 6-[2-(benzoylamino)acetamido]-2-[(4-trifluoromethyl)benzyloxycarbonyl)hexanoate]
[1]
  Effect on MMP2 binding to integrin αvβ3: slightly less active than Compound 1

## COC(=O)[C@H](CCCCNC(=O)CNC(=O)COCC(=O)O)NC(=O)OCc1ccc(C(F)(F)F)cc1 [Compound 8]
[1]
  Effect on MMP2 binding to integrin αvβ3: inactive

## O=C(CNC(=O)c1cccc(C(=O)NCC(=O)NCCCC[C@H](NC(=O)c2ccccc2)C(=O)O)c1)NCCCC[C@H](NC(=O)c1ccccc1)C(=O)O [Compound 12, N,N′-Bis-[N-(-5-(S)-((benzoyl)amino)-5-(carboxy)pentyl)carboxamidomethyl]benzene-1,3-dicarboxamide]
[1]
  Effect on MMP2 binding to integrin αvβ3: neither the control compound nor the control peptide cRADfV interfered
[6]
  Effect on development of new blood vessels in bFGF-stimulated CAM: ineffective
[7]
  Effect on MMP2-enhanced cell-mediated [3H]collagen IV degradation: negligible effect
[8]
  Effect on [3H]collagen IV degradation by purified active MMP2 in the absence of cells: still able to degrade
[12]
  Effect on biotinylated MMP2 binding to β3-negative CS-1 cells: not diminished

## cRGDfV [reference compound]
[1]
  Effect on MMP2 binding to integrin αvβ3: lack of effect
[14]; 100 μM cyclic peptide, FIG. 2D
  Inhibition of bVN binding to immobilized integrin αvβ3 by peptide: completely abolished
[14]; bVN 1 μg/ml, FIG. 2A
  Effect on vitronectin binding to integrin αvβ3: inhibited
[9]; 3 μM [14C]-Compound 1, 100 μM cyclic peptide, FIG. 2D
  Inhibition of [14C]-Compound 1 binding to integrin αvβ3 by peptide: inability of the cRGDfV peptide to inhibit
